# According to paper PMC12064818, “A general assay platform to study protein pharmacology using ligand-dependent structural dynamics” (Nature Communications, 2025):
# Counter-ions that a name gives are not always drawn. Like-named read-outs stand apart in the source and are kept apart here.
# Legend:
# [1] = test system: PKA; details: cited from earlier work
# [2] = target: PKA-N-HiBiT (Homo sapiens, UniProt P17612); test: SDR assay, PKA-N-HiBiT
# [3] = target: T1, ABL1-N-HiBiT kinase domain (Homo sapiens, UniProt P00519); test: SDR assay, ABL1-N-HiBiT; details: for ABL1 SDR pSDR50: heatmap data, 128 kinase inhibitors; for EC50: read-out: SDR Ave SDR50, unit inferred
# T1 sequence (P00519 233-500): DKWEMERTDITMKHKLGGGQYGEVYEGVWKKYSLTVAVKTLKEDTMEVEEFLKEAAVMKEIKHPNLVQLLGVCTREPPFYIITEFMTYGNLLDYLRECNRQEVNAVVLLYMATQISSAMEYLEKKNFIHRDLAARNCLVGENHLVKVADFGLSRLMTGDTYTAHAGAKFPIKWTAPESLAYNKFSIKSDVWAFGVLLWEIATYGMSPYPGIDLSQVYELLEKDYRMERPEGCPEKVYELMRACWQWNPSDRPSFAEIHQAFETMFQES
# [4] = target: T2, NLuc (Oplophorus gracilirostris, UniProt Q9GV45, A31E/A60N/A81I/F95D/I117V/K70R/L54V/L99Q/M102K/N193R/P142E/Q151K/Q38R/Q45L/V71I/Y165I); assay type: biochemical; details: - ATP
# T2 construct: His tag (inferred from IMAC purification); made in house; host or cells: E. coli
# T2 sequence (Q9GV45 other isoform, or with tags, fused parts or gaps with the stated changes): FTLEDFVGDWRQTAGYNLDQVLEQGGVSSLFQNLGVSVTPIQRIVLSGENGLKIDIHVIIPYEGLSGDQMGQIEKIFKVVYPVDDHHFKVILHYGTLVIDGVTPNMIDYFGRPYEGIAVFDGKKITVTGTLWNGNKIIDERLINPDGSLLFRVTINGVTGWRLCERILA
# Outline: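 Test compounds added to 1 nM NLuc in PBS with 0.05% IGEPAL, ± ATP. Nano-Glo reagent added and incubated 10 min before luminescence read.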
# [5] = target: P. pyralis FLuc (Photinus pyralis, UniProt P08659); test: FLuc enzymatic luminescence assay, P. pyralis FLuc; assay type: biochemical; details: FLuc enzymatic assay, Clade S follow-up
# P. pyralis FLuc, sequence (P08659 whole entry): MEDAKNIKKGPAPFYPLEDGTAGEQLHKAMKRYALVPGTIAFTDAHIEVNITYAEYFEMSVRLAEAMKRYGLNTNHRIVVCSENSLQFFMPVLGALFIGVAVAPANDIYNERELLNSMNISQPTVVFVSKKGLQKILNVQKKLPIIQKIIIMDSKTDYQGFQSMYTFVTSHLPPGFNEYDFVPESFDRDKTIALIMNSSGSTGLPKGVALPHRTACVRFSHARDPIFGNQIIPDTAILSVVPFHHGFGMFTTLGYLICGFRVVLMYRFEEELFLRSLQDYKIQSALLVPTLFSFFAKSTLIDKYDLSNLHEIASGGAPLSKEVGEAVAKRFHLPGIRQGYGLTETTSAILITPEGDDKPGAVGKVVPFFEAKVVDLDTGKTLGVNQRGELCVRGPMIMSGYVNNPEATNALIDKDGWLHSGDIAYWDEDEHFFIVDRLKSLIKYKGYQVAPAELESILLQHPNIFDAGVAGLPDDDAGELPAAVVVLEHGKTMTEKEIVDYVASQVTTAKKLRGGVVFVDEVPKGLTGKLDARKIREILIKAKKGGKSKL
# Outline: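 Runs with and without 10 µM ATP: compounds were pre-incubated with FLuc (1–10 nM, PBS pH 7.4) at ambient temperature, light-protected, for 30–60 min. Luminescence was imaged 5 min after adding 10 µM D-luciferin (final). Inhibition was scaled between DMSO neutral and no-enzyme controls.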
# [6] = target: T3, FLuc-C-HiBiT (Photinus pyralis, UniProt P08659); test: biochemical; details: enzyme activity, 10 uM ATP; read-out: IC50 or SDR50 (mM) / FLuc E
# T3 construct: firefly luciferase with C-terminal HiBiT tag, E. coli expressed
# T3 sequence (P08659 whole entry, looked up): as the sequence (P08659 whole entry) above
# [7] = target: FLuc-C-NLuc (firefly luciferase) (Photinus pyralis, UniProt P08659, form not given/L550V); test: SDR assay, FLuc-C-NLuc; details: - ATP
# FLuc-C-NLuc (firefly luciferase), sequence (P08659 2-550 L550V, form open): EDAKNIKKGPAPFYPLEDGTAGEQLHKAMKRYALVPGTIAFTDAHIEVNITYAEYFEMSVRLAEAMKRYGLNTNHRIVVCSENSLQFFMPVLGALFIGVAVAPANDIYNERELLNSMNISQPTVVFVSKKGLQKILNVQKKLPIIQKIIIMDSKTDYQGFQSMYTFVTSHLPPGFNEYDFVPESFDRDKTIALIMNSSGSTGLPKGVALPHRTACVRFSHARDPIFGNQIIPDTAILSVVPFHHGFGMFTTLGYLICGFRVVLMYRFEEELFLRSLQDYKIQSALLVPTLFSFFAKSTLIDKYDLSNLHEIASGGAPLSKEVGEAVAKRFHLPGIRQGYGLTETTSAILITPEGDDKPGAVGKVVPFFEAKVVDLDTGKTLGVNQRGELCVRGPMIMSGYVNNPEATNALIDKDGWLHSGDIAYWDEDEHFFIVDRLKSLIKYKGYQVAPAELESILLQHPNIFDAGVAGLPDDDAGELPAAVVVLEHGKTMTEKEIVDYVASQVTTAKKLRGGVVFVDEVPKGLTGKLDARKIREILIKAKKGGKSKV
# [8] = target: FLuc-C-HiBiT (firefly luciferase) (Photinus pyralis, UniProt P08659, form not given/L550V); test: SDR assay, FLuc-C-HiBiT; details: SDR max. response, clade S
# FLuc-C-HiBiT (firefly luciferase), sequence (P08659 2-550 L550V, form open): as above
# [9] = annotation yes/no for kinase library compound, source not given
# [10] = PKA-N-HiBiT qHTS, SDR assay, average maximal response
# [11] = ABL1-N-HiBiT qHTS, average maximal SDR response
# [12] = read-out: PKA SDR Ave SDR50, PKA-N-HiBiT qHTS, SDR assay, average
# [13] = ABL1-N-HiBiT qHTS, SDR assay, average maximal response
Molecule,"Annotated PKA activity [1, 9]","SDR Ave Max Response [2, 10]","SDR Ave Max Response [3, 11]",also measured
O=C(Nc1cc(C(F)(F)F)ccc1N1CCCCC1)c1ccncc1 [SRPIN340],no,1.60,-4.31,–
Cc1cc(-c2cc(O)ccc2Cl)cc2nnc(Nc3ccc(OCCN4CCCC4)cc3)nc12 [TG 100572 HCl],no,-13.83,–,–
COc1ccc(-n2c(SCC#N)nc3sc4c(c3c2=O)CCCC4)cc1 [Necrostatin-5],no,1.51,–,SDR Ave Max Response [3]: -3.84
Cc1n[nH]c2ncc(C(=O)N3CCC[C@H]3c3ccc(Cl)cc3)cc12 [MSC2530818],no,40.05,–,"EC50 [2]: 14.1 µM; EC50 [2, 12]: 14.5 µM; SDR Ave Max Response [3, 13]: 4.30"
N#Cc1cccc(-c2c[nH]c3ncnc(N4CCOCC4)c23)c1 [PF-06447475],no,35.28,52.23,"EC50 [2]: 19.5 µM; EC50 [2, 12]: 20.8 µM; ABL1 SDR pSDR50 [3]: 4.46; EC50 ([3]; ABL1-N-HiBiT qHTS, average): 35.5 µM"
COc1cc2c(Oc3ccc(NC(=O)C4(C(=O)Nc5ccc(F)cc5)CC4)cc3F)ccnc2cc1OCCCN1CCOCC1 [Foretinib],no,–,–,–
Cc1ccccc1-n1c([C@H](C)Nc2nc(N)nc3[nH]cnc23)nc2cccc(C)c2c1=O [CAL-130 Hydrochloride],no,2.85,-18.17,"SDR Ave pSDR50 ([3]; ABL1-N-HiBiT qHTS, average): 5.40; EC50 ([3]; ABL1-N-HiBiT qHTS, average): 4.04 µM"
CCN1CCN(Cc2ccc(NC(=O)Nc3ccc(Oc4cc(NC)ncn4)cc3)cc2C(F)(F)F)CC1 [AST-487],yes,–,–,–
"CN[C@@H]1C[C@H]2O[C@@](C)([C@@H]1OC)n1c3ccccc3c3c4c(c5c6ccccc6n2c5c31)C(=O)NC4 [staurosporine, reference compound]",yes,–,–,–
PLX-4720,no,5.33,37.18,"ABL1 SDR pSDR50 [3]: 4.63; EC50 ([3]; ABL1-N-HiBiT qHTS, average): 24.5 µM"
CSc1cccc(Nc2ncc3cc(-c4c(Cl)cccc4Cl)c(=O)n(C)c3n2)c1 [PD-173955],no,–,–,–
O=C(c1cccc(Cl)c1F)N1CCN(Cc2cccc(Nc3nccs3)n2)CC1 [MK-8745],no,-13.81,59.57,"ABL1 SDR pSDR50 [3]: 5.27; EC50 ([3]; ABL1-N-HiBiT qHTS, average): 5.74 µM"
Nc1ncccc1-c1nc2ccc(-c3ccccc3)nc2n1-c1ccc(C2(N)CCC2)cc1 [Miransertib],no,–,–,–
Cc1sc2c(c1C)C(c1ccc(Cl)cc1)=N[C@@H](CC(=O)Nc1ccc(OCCOCCOCCOCCNc3cccc4c3C(=O)N(C3CCC(=O)NC3=O)C4=O)cc1)c1nnc(C)n1-2 (stereo partly drawn) [ARV-825],no,3.65,–,"SDR Ave Max Response [3, 13]: 5.73"
Mps1-IN-3,no,14.72,66.03,ABL1 SDR pSDR50 [3]: 4.80
Cc1ccc(NC(=O)c2ccc(CN3CCN(C)CC3)cc2)cc1Nc1nc(-c2cccnc2)cs1 [Masitinib],no,–,–,–
COc1cc2ncnc(Nc3ccc(F)c(Cl)c3)c2cc1OCCCN1CCOCC1 [Gefitinib],no,–,–,–
COc1ccc2c(Oc3ccc(NC(=O)c4c(C)n(CC(C)(C)O)n(-c5ccccc5)c4=O)nc3)ccnc2c1 [AMG-458],yes,–,38.29,EC50 [2]: 10.7 µM; SDR Ave Max Response [2]: -17.61; EC50 ([2]; read-out: PKA SDR Ave SDR50): 10.7 µM
O=C(NOCC(O)CO)c1cc(Br)c(F)c(F)c1Nc1ccc(I)cc1F (stereo not drawn) [PD-318088],no,-21.34,-2.26,"PKA SDR Ave pSDR50 ([2]; PKA-N-HiBiT qHTS, SDR assay, average): 4.33; EC50 [2, 12]: 62 µM"
FC(F)(F)c1ccc(/C=C/c2nc(COc3ccc(CCCCn4ccnn4)cc3)co2)cc1 [Mubritinib],–,–,–,Annotated PKA activity [1]: no; SDR Ave Max Response [2]: 6.74; SDR Ave Max Response [3]: 1.25

Molecule,"Annotated PKA activity [1, 9]","SDR Ave Max Response [2, 10]","SDR Ave Max Response [3, 11]",also measured
Cc1ncc(NC(=O)c2ccc(CN3CCN(C)CC3)c(C(F)(F)F)c2)cc1Nc1nccc(-c2cccnc2)n1 [Flumatinib],no,7.84,74.04,–
Cc1[nH]c2ccccc2c1C1=C(NCCc2ccc(F)cc2)C(=O)N(C)C1=O [IM-12],no,-30.07,-12.41,"EC50 [2]: 32.4 µM; EC50 [2, 12]: 41.4 µM"
NC1(C(=O)N[C@@H](CCO)c2ccc(Cl)cc2)CCN(c2nc[nH]c3nccc2-3)CC1 [AZD-5363],yes,63.28,-4.45,–
Cc1cccc(/C=N/Nc2cc(N3CCOCC3)nc(OCCc3ccccn3)n2)c1 [Apilimod],no,-3.80,7.50,–
COc1cc2c(cc1OC)-c1[nH]nc(Nc3cccc(F)c3)c1C2 [PDGF RTK inhibitor IV],no,5.85,–,–
CNC(=O)c1ccccc1Sc1ccc2c(/C=C/c3ccccn3)n[nH]c2c1 [Axitinib],no,-3.36,–,–
Tozasertib,no,–,–,SDR Ave Max Response [2]: -1.35
CC(C)n1nc(-c2cc3cc(O)ccc3[nH]2)c2c(N)ncnc21 [PP 242],–,–,–,Annotated PKA activity [1]: yes
PHA-665752,no,–,–,–
Cc1cc(Nc2ncc3cc(-c4c(Cl)cccc4Cl)c(=O)n(C)c3n2)ccc1F [PD 180970],no,-17.64,–,–
C/N=c1\ncc2cc(-c3cc(NC(=O)NCCC(C)(C)C)c(F)cc3C)c(C)nc2[nH]1 [LY-3009120],no,2.67,–,–
C=CC(=O)Nc1cc2c(Nc3ccc(F)c(Cl)c3)ncnc2cc1OCCCN1CCOCC1 [Canertinib],no,–,–,–
CO[C@@H](C(=O)N1Cc2n[nH]c(NC(=O)c3ccc(N4CCN(C)CC4)cc3)c2C1)c1ccccc1 [Danusertib],no,4.52,–,–
Cc1cn(-c2cccc(NC(=O)c3ccc(C)c(Nc4nccc(-c5cccnc5)n4)c3)c2)cn1 [NSC762949],no,-2.45,–,–
Cc1cc(C)c(/C=C2\C(=O)Nc3ccccc32)[nH]1 [Semaxanib],no,–,–,–
Cc1cn(-c2cc(F)cc(NC(=O)c3ccc(C)c(Nc4nccc(-c5cccnc5)n4)c3)c2)cn1 [NSC762950],no,-15.93,–,–
CN1CCN(CCOc2cc(OC3CCOCC3)c3c(Nc4c(Cl)ccc5c4OCO5)ncnc3c2)CC1 [Saracatinib],no,3.81,–,–
Cc1cc(NC(=O)c2ccc(C)c(Nc3nccc(-c4cccnc4)n3)c2)cc(-n2cnc(C)c2)c1 [NSC762948],no,-6.66,–,–
Cc1ccc(NC(=O)C2CCN(C(=O)c3ncn4c3COC(c3ccccc3)C4)CC2)cc1 (stereo not drawn) [NCGC00449903-01],–,–,–,"Efficacy (%) NLuc (- ATP) [4]: 0.00%; Efficacy (%) FLuc E [5]: -93.84%; pIC50 or pSDR50 FLuc E [5]: 5.61; IC50 ([5]; read-out: IC50 or SDR50 (mM) FLuc E): 0.00248 mM; IC50 [6]: 0.00176 mM; Efficacy (%) FLuc-C-NLuc SDR (-ATP) [7]: 0.00%; % Activity (max response, + ATP) ([8]; + ATP): 343.11%; % Activity (max response, - ATP) ([8]; - ATP): 0.00%"
TAE-684,no,28.42,–,"EC50 [2, 12]: 9.6 µM"
